# Experimental data taken from article PMC4405350, “From Broad-Spectrum Biocides to Quorum Sensing Disruptors and Mussel Repellents: Antifouling Profile of Alkyl Triphenylphosphonium Salts” (PLoS ONE, 2015).
# Columns and labels:
# Alternaria sp. = assay: Marine-derived fungi growth inhibition (OD405); format: cell-based; conditions: Alternaria, 120 h; growth inhibition, 5 days, 26 °C; read-out: IC50 Alternaria sp.
# Experimental: (§1) All the biological assays were run by triplicate. […] For the active products, serial dilutions were performed to calculate the half-maximal inhibitory concentrations (IC50) or the minimal inhibitory concentrations (MIC). Unless otherwise stated, the test concentrations were 100, 50, 25, 10, 5, 2.5, 1, 0.5 and 0.1 μM. Dose-response curves were adjusted with GraphPad Prism 5 software using a four-parameter non-linear regression model.
# (§2) Three strains of marine-derived fungi were kindly provided by Dr. Á. Trigos (University of Veracruz, Mexico). The strains were isolated from reef organisms collected from the Veracruz Reef System and identified as Aspergillus sp., Fusarium sp. and Alternaria sp..
# (§3) Fungal strains were cultured in Potato-Dextrose Agar (PDA) supplemented with filtered seawater (FSW) (50% v/v) at 26 °C for 5 days prior to experiments. […] Briefly, fungal inocula were prepared by addition of 5 ml of sterile saline solution to the cultures. Gently swabbing released conidia. […] The plates were incubated for 5 days at 26 °C. The calculation of the half-maximal inhibitory concentrations (IC50) was performed using OD405 as endpoint.
# Aspergillus sp. = assay: Marine-derived fungi growth inhibition (OD405); format: cell-based; conditions: Aspergillus, 120 h; growth inhibition, 5 days, 26 °C; read-out: IC50 Aspergillus sp.
# Experimental: as §1, §2, §3
# [1] = test system: violacein production of C. violaceum CVO26; assay: Quorum sensing bioassay: violacein production; format: cell-based, Chromobacterium violaceum; conditions: 18 h; for IC50: Chromobacterium violaceum, read-out: IC50 (Violacein inhibition)
# Experimental: The reporter strain C. violaceum CVO26 (CECT 5999) was used to screen the ability of the products to interfere with violacein production, a QS-regulated phenotype. C. violaceum CVO26 is a mini-Tn5 mutant that depends on an exogenous source of autoinducer (AI) (N-hexanoyl homoserine lactone, HHL) for violacein production. C. violaceum CVO26 was cultured in LB broth (Sigma-Aldrich) supplemented with 25 μg ml^-1 kanamycin. Inocula were prepared by dilution (1:100) of an overnight culture of the reporter strain [49]. One hundred microliters of inoculum with HHL (Sigma-Aldrich, 6 μM) or without the AI were added to 96-well plates containing 100 μl of the appropriate dilutions of the test products in LB. Thus, two sets of plates were prepared. One set of plates (without HHL) was used to evaluate the effect of the products on bacterial growth, whereas the other set of plates (with HHL) was used to evaluate their effect on violacein production. Both sets of plates were incubated at 30 °C with agitation (150 rpm) for 18 h.
# Growth inhibition was quantified in the first batch of plates by re-suspending bacterial pellets and measuring the OD625. From the second batch of plates violacein was extracted and quantified. Briefly, the plates were dried overnight (60 °C) and violacein was re-solubilized by the addition of 200 μl of DMSO. The plates were shaken for 3 h and then the OD590 was determined.
# To evaluate the effect of the alkyl triphenylphosphonium salts on QS-regulated phenotypes, an initial screening at the cut-off concentration of 100 μM was conducted with C. violaceum CVO26. The QS model of C. violaceum is relatively simple and consists of an acyl-homoserine lactone synthase (CviI) that produces the AI molecule N-hexanoyl homoserine lactone (HHL, strain ATCC 31532), or N-3-hydroxydecanoyl homoserine lactone (strain ATCC 12472) which is recognized by the cytoplasmic receptor CviR (Fig 4). The reporter strain CVO26 is a CviI::mini-Tn5 mutant of strain ATCC 31532 and thus recognizes HHL. CviR is a DNA-binding transcription factor that activates the expression of the genes encoding the production of violacein, the characteristic purple alkaloid that gives name to the species.
# Indeed, the inhibitions observed in violacein production for long alkyl chains (10–18, 20) were clearly correlated to the biocidal effect exerted by these compounds, with ‘therapeutic ratios’ (IC50 for growth inhibition/IC50 for violacein inhibition) around 1, in general (Table 2). Note that, as the length of the hydrocarbon chain becomes shorter, this ratio increased (8–9). […] To evaluate these compounds in further detail, […] stock solutions were prepared […] to avoid the use of high concentrations of DMSO in the bioassays. […] Serial two-fold dilutions (500–3.9 μM) were assayed. Consequently, the highest amount of DMSO used in the assay was 0.25% (v/v). […] Growth inhibitory effects are only observed at 500 μM, particularly for compound 7 (Fig 6D).
# Fusarium sp. = assay: Marine-derived fungi growth inhibition (OD405); format: cell-based; conditions: Fusarium, 120 h, 5 days, 26 °C
# Experimental: All the biological assays were run by triplicate.
# as §2, §3
# Amphora sp. = assay: Benthic diatom growth inhibition (chlorophyll-a); format: cell-based; conditions: 120 h; growth, 5 days, chlorophyll-a; read-out: IC50 Amphora sp.
# Experimental: as §1
# (§4) Five strains of benthic diatoms, Nitszchia sp. […] The Nitzschia and Navicula strains were purchased from the Spanish Bank of Algae (Marine Biotechnology Center, University of Las Palmas de Gran Canaria). The other three strains were kindly provided by Dr. G. Courtois (University of Las Palmas de Gran Canaria). Diatoms were cultured at 19±1 °C in Erlenmeyer flaks (250 ml) containing 150 ml of Guillard’s F/2 medium, and subjected to a photoperiod of 18:6. Tests were run in 48-well plates. Inocula were prepared by adjusting diatom concentration to 2–4 × 10^6 cells ml^-1 using a Neubauer chamber. Test products were dissolved in F/2 medium (500 μl) to which diatom inocula (500 μl) were added. Thus, the final assay volume was 1 ml and the starting cell densities were ca. 1–2 x 10^6 diatoms ml^-1. Plates were incubated under the abovementioned conditions for 5 days and then chlorophyll-a (Chla) was quantified.
# (§5) In order to extract Chla, the content of each well was transferred to a microcentrifuge tube and centrifuged at 10,000 rpm for 10 min. The supernatants were discarded and 200 μl of DMSO were added to the pellets. The tubes were incubated at 65 °C for 2 h in total darkness and vortexed every 30 min. Then, the content of each tube was transferred to a 96-well plate and the amount of Chla was determined spectrophotometrically. Path length correction factor for the DMSO extracts was determined.
# Cylindrotheca sp. = assay: Benthic diatom growth inhibition (chlorophyll-a); format: cell-based; conditions: 120 h; growth, 5 days, chlorophyll-a; read-out: IC50 Cylindrotheca sp.
# Experimental: as §1, §4, §5
# [2] = test system: Phaeodactylum tricornutum; assay: Benthic diatom growth inhibition (chlorophyll-a); format: cell-based; conditions: Phaeodactylum tricornutum, 120 h; growth, 5 days, chlorophyll-a; read-out: IC50 P. tricornutum
# Experimental: as §1, §4, §5
# Nitzschia sp. = assay: Benthic diatom growth inhibition (chlorophyll-a); format: cell-based; conditions: 120 h; growth, 5 days, chlorophyll-a; read-out: IC50 Nitzschia sp.
# Experimental: as §1, §4, §5
# [3] = test system: Navicula cf. salinicola BEA 0055; assay: Benthic diatom growth inhibition (chlorophyll-a); format: cell-based; conditions: 120 h; growth, 5 days, chlorophyll-a; read-out: IC50 Navicula cf. salinicola
# Experimental: as §1, §4, §5
smiles,measurement,setting,value
c1ccc([P+](CCCCCCCCCCCC[P+](c2ccccc2)(c2ccccc2)c2ccccc2)(c2ccccc2)c2ccccc2)cc1 [Compound 20],IC50,Alternaria sp.,0.3 µM
same,IC50,Aspergillus sp.,0.6 µM
same,IC50,[1],16.7 µM
same,IC50,Fusarium sp.,5.6 µM
same,IC50,Amphora sp.,1.6 µM
same,IC50,Cylindrotheca sp.,1.3 µM
same,IC50,[2],1 µM
same,IC50,Nitzschia sp.,2 µM
same,IC50,[3],0.6 µM
BrC(Br)[P+](c1ccccc1)(c1ccccc1)c1ccccc1 [Compound 1],IC50,Alternaria sp.,> 100 µM
same,IC50,Aspergillus sp.,> 100 µM
same,IC50,[1],> 100 µM
same,IC50 (Violacein inhibition),"[1]; with HHL, compounds 3-5 and 7 tested up to 500 μM, others up to 100 μM",inactive
same,IC50,Fusarium sp.,> 100 µM
same,IC50,Amphora sp.,19.5 µM
same,IC50,Cylindrotheca sp.,9.8 µM
same,IC50,[2],16.8 µM
same,IC50,Nitzschia sp.,18.7 µM
same,IC50,[3],10.6 µM
CCCCCCCCCCC[P+](c1ccccc1)(c1ccccc1)c1ccccc1 [Compound 11],IC50,Alternaria sp.,3.5 µM
same,IC50,Aspergillus sp.,5.1 µM
same,IC50,[1],3.5 µM
same,IC50,Fusarium sp.,5.3 µM
same,IC50,Amphora sp.,3.3 µM
same,IC50,Cylindrotheca sp.,1 µM
same,IC50,[2],1.7 µM
same,IC50,Nitzschia sp.,2.3 µM
same,IC50,[3],1.5 µM
